Measurements from article PMC8831520, “Small molecule SWELL1 complex induction improves glycemic control and nonalcoholic fatty liver disease in murine Type 2 diabetes” (Nature Communications, 2022).

What was measured:
[1] = target: T1, ICl,SWELL (SWELL1-LRRC8 channel) in HEK-293 cells (Homo sapiens, UniProt Q8IWT6); experiment: ICl,SWELL inhibition after hypotonic activation (open channel), patch-clamp; assay type: cell-based; settings: HEK-293 cells; for IC50: hypotonic (210 mOsm) stimulation, outward current, compound applied at 30 pA/pF, read-out: IC50 for ICl,SWELL inhibition
T1 construct: applied when the endogenous HEK-293 cell ICl,SWELL current density reached 30 pA/pF; endogenous in cells; host or cells: HEK-293 (ATCC, #CRL-1573)
T1 sequence (Q8IWT6 1-810): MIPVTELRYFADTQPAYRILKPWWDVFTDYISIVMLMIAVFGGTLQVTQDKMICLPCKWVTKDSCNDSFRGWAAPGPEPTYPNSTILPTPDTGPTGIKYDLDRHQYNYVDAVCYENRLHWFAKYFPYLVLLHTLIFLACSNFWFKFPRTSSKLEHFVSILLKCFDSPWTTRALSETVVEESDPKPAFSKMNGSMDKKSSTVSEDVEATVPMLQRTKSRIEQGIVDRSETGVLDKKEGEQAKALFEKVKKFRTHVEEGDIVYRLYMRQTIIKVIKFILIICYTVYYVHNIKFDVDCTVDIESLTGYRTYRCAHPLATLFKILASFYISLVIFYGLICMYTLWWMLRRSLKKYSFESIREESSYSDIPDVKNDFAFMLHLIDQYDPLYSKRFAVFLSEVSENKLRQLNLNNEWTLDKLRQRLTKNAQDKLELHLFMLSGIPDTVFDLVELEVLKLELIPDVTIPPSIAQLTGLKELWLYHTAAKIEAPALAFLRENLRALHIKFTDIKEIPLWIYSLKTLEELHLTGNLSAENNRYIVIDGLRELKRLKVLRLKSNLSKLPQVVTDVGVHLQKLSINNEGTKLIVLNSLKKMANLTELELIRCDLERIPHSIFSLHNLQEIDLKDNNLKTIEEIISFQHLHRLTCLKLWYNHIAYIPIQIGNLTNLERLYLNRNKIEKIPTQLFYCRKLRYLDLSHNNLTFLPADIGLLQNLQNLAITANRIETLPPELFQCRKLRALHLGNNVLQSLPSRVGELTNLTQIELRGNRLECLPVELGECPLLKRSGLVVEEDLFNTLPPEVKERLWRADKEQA
Description: Patch-clamp recordings of β-cells, 3T3-F442A adipocytes, and mature human adipocytes were performed as described previously[24],[28]. Briefly, all patch-clamp experiments were conducted at room temperature using either an Axopatch 200B amplifier or a MultiClamp 700B amplifier paired to a Digidata 1550 digitizer. Data were acquired using pClamp 10.4 software. For hypotonic swelling, extracellular solution consisted of the following (in mM): 90 NaCl, 2 CsCl, 1 MgCl2, 1 CaCl2, 10 HEPES, 10 mannitol, pH 7.4 with NaOH (210 mOsm/kg). The isotonic extracellular solution consisted of the same composition above but with 110 mM instead of 10 mM mannitol (300 mOsm/kg). The swell-activated current was elicited by perfusing cells with a hypotonic solution (210 mOsm/kg). […] For perforated-patch recordings in isolated human adipocytes, the intracellular solution was as above but without ATP and GTP, and contained 360 μg/ml Amphotericin B (Sigma). The holding potential was 0 mV. Voltage ramps from −100 to +100 mV (at 0.4 mV/ms) were applied every 4 s. The sampling interval was 100 μs and filtered at 10 kHz. For perforated-patch recordings, cells with a membrane resistance below 1 GΩ or access resistance above 20 MΩ were discarded. […]

[2] = tested on: T2, SWELL1 protein in 3T3-F442A adipocytes; experiment: SWELL1 protein under glucolipotoxic stress (palmitate + glucose); assay type: cell-based, murine; settings: 10 µM 96 h pretreatment, then 1 mM palmitate + 25 mM glucose 16 h
T2 construct: host or cells: 3T3-F442A preadipocytes and differentiated adipocytes (wild type)
Description: (§1) In the case of 3T3-F442A adipocytes, the WT and KO cells were treated with either vehicle (DMSO), 1 or 10 µM SN-40X (after 7–11 days of differentiation) for 96 h and then stimulated with 0 and 10 nM insulin/serum-containing media with vehicle (DMSO) or SN-40X for 15 min for SWELL1 detection. […] To simulate glucolipotoxicity, 8 mM sodium palmitate was dissolved in 18.4% fatty-acid free BSA at 37 °C in DMEM medium with 25 mM glucose to obtain a conjugation ratio of 1:3 palmitate:BSA[80].

[3] = tested on: T2, SWELL1 protein in 3T3-F442A adipocytes; experiment: SWELL1 protein western blot in adipocytes; assay type: cell-based, murine; settings: 10 and 1 μM, 4 days, then 6 h serum starving
Description: as §1
Adipocytes were washed twice in ice-cold phosphate buffer saline and lysed in RIPA buffer (150 mM NaCl, 20 mM HEPES, 1% NP-40, 5 mM EDTA, pH 7.4) with proteinase/phosphatase inhibitors (Roche). The cell lysate was further sonicated in 10 s cycle intervals 2–3 times and centrifuged at 18,407×g for 30 min at 4 °C and repeated one more time to remove the excess fat. The supernatant was collected and further estimated for protein concentration using a DC protein assay kit (Bio-Rad). Fat and liver tissues were homogenized and suspended in RIPA buffer with inhibitors and further processed in a similar fashion as described above. HUVECs were also prepared in a similar fashion except the lysates were spun only once to remove the cells debris to obtain the clear supernatant. For islets, either human or mouse islets were washed twice with phosphate buffer saline (PBS) and lysed using RIPA buffer containing protease and phosphatase inhibitors. The lysate was further clarified by freezing in liquid nitrogen for about 10 s for three cycles. The supernatant was collected from the whole lysate centrifuged at 16,260×g for 20 min at 4 °C. […] For soleus muscle, the tissue was homogenized in a Bullet Blender homogenizer (Speed-9, Time-3 mins) in 8 volumes of ice-cold muscle homogenization buffer (50 mM Tris, 25 mM NaCl, 0.2% Nonidet P-40, 5 mM EGTA, 2.5 mM EDTA, 20 mM NaF, 20 mM Na4P2O7·10H2O, 2 mM Na3VO4, pH 7.4) supplemented with protease/phosphatase inhibitor (Roche). The homogenized lysate was centrifuged two times at 18,500×g for 20 min at 4 °C and supernatant was collected for protein estimation. Protein samples were further prepared by boiling in 2X or 4X Laemmli buffer. Approximately 10–60 µg of total protein was loaded in 4–15% gradient gel (Bio-Rad) for separation and protein transfer was carried out onto the PVDF membranes (Bio-Rad). Membranes were blocked in 5% BSA (or 5% milk for SWELL1) in TBST buffer (0.2 M Tris, 1.37 M NaCl, 0.2% Tween-20, pH 7.4) for 1 h and incubated with appropriate primary antibodies (5% BSA or milk) overnight at 4 °C. […] The images were further analyzed for band intensities using ImageJ software. […]

T2D and non-T2D mice = experiment: Metabolic phenotyping: fasting glucose, GTT, ITT; settings: compared to Inactive 1
Description: All compounds were dissolved in Kolliphor® EL (Sigma, #C5135).
(§2) Mice were fasted for 6 h prior to glucose tolerance tests (GTT). Baseline glucose levels at 0 min timepoint (fasting glucose, FG) were measured from a blood sample collected from tail snipping using glucometer (Bayer Healthcare LLC). Either 1 or 0.75 g D-Glucose/kg body weight were injected (i.p.) for lean or HFD mice, respectively and glucose levels were measured at 5 or 7, 15, 30, 60, 90, and 120 min timepoints after injection. For insulin tolerance tests (ITTs), the mice were fasted for 4 h. Similar to GTTs, the baseline blood glucose levels were measured at 0 min timepoint and 15, 30, 60, 90, and 120 min timepoints post-injection (i.p.) of insulin (HumulinR, 1 U/kg bodyweight for lean mice or 1.25 U/kg body weight for HFD mice). […] The collected plasma was then measured for insulin content by using Ultra-Sensitive Mouse Insulin ELISA Kit (Crystal Chem, #90080). All mouse studies were performed in a blinded fashion.

[4] = target: T3, R103E-SWELL1 expressing HEK-293 cells (R103E O/E) (Homo sapiens, UniProt Q8IWT6, R103E); experiment: ICl,SWELL inhibition in SWELL1-R103E overexpressing cells, patch-clamp; assay type: cell-based; settings: R103E-SWELL1 overexpressing HEK-293 cells, compound applied at maximum current density; read-out: IC50 for ICl,SWELL inhibition, R103E O/E
T3 construct: P2A:EGFP (C); host or cells: HEK-293, Lipofectamine 2000, co-transfected with CMV-Cre; EGFP+ cells recorded
T3 sequence (Q8IWT6 whole entry R103E): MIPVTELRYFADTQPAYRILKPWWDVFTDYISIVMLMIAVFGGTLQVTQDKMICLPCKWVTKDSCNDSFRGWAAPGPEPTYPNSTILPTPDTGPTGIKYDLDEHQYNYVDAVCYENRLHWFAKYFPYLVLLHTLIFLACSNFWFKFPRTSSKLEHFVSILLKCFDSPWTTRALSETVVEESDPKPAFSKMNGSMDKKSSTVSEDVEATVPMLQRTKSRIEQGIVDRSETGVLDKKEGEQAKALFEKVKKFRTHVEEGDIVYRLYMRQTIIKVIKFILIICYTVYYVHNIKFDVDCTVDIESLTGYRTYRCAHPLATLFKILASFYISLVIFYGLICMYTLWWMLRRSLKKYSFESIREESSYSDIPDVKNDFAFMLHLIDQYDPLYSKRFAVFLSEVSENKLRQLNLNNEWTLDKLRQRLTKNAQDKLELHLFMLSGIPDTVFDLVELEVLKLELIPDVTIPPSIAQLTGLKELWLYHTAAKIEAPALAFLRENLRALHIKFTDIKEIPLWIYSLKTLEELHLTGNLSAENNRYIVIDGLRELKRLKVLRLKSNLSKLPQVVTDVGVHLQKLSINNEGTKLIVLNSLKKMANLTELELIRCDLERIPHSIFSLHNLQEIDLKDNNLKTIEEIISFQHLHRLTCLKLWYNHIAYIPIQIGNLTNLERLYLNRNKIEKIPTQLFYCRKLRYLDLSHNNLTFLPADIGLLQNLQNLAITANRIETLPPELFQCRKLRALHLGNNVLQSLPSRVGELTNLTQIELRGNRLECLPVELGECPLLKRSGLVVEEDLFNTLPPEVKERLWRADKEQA
Source text: See also Fig. 6 for a schematic representation. […] For SWELL1-R103E overexpression experiments, HEK-293 cells were transfected with either control Cre plasmid (CMV-Cre, McDonnell Genome Institute in Washington University in St. Louis) or Cre plus R103E-GFP (CAG-LoxP-stop-LoxP-SWELL1-R103E/3XFlag:P2A:EGFP, Vector Biolabs) plasmid using Lipofectamine 2000 as per the manufacturer’s protocol. SWELL1-R103E expressing HEK-293 cells were identified by EGFP + fluorescence.

[5] = tested on: pancreatic islets of T2D mice; experiment: Insulin secretion of treated T2D mice (serum insulin, islet perifusion GSIS); assay type: in vivo, mouse; settings: islets of T2D KKAy mice, compared to Inactive 1
Description: as §2

[6] = target: Mus musculus SWELL1 (LRRC8a, leucine-rich repeat-containing protein 8a) (Mus musculus); experiment: cryo-EM structure; SWELL1 in MSP1E3D1 lipid nanodiscs (2:1:1 DOPE:POPC:POPS), 1 mg/mL SWELL1-MSP1E3D1 with 100 µM SN-407; 20 mM HEPES, 150 mM KCl, pH 7.4; C6 refinement, then symmetry expansion and relaxation
[7] = 8 weeks HFD mice, 5 mg/kg/day × 4 days

O=C(O)CCCOc1cc2c(c(Cl)c1Cl)C(=O)C(C1CCCC1)C2 (stereo not shown) [Inactive 2, 4-((6,7-dichloro-2-cyclopentyl-1-oxo-2,3-dihydro-1H-inden-5-yl)oxy)butanoic acid]
IC50 [1]: 10.6 µM | prevention of palmitate/glucose-induced reduction of SWELL1 protein [2]: not | SWELL1 protein level relative to vehicle-treated controls [3]: did not significantly increase

CCCCC1(C2CCCC2)Cc2cc(OCCCB(O)O)c(Cl)c(Cl)c2C1=O (stereo not shown) [Inactive 3, (3-((2-butyl-6,7-dichloro-2-cyclopentyl-1-oxo-2,3-dihydro-1H-inden-5-yl)oxy)propyl)boronic acid]
IC50 [1]: 18.3 µM

CCCCC1(C2CCCC2)Cc2cc(OCCCCC(=O)O)c(Cl)c(Cl)c2C1=O (stereo not shown) [SN-403, 5-((2-butyl-6,7-dichloro-2-cyclopentyl-1-oxo-2,3-dihydro-1H-inden-5-yl)oxy)pentanoic acid]
ICl,SWELL inhibitory activity compared to SN-401 [1]: increased ICl,SWELL inhibitory activity | fasting blood glucose (T2D and non-T2D mice; [7]): significantly reduced | glucose tolerance (T2D and non-T2D mice; [7]): improved

CCCCC1(C2CCCC2)Cc2cc(OCCCCCCC(=O)O)c(Cl)c(Cl)c2C1=O (stereo not shown) [SN-407, 7-((2-butyl-6,7-dichloro-2-cyclopentyl-1-oxo-2,3-dihydro-1H-inden-5-yl)oxy)heptanoic acid]
IC50 [4]: 4.2 µM | GSIS [5]: increased | ICl,SWELL inhibitory activity compared to SN-401 [1]: increased ICl,SWELL inhibitory activity | IC50 [1]: 1.6 µM | glucose tolerance (GTT AUC) (T2D and non-T2D mice; T2D KKAy mice, 5 mg/kg i.p. 4 days): improved

Mus musculus SWELL1 (LRRC8a, leucine-rich repeat-containing protein 8a) (natural protein)
stoichiometry N [6]: 6
